From patent US20100324017A1, “ACYLGUANIDINE DERIVATIVE” (priority 2007, published 2010)
Counter-ions that a name gives are not always drawn.

What follows are molecules tested on MK-801-induced overactivity (assay: MK-801-induced overactivity in mice, kinetic momentum by infrared sensor). Conditions: mouse, oral, dose 0.01 mg/kg; MK-801 0.3 mg/kg i.p.; total 60 minutes, P<0.05.
Assay type: in vivo
Procedure: Evaluation of Various Drugs Relative to a Drug for Increasing the Kinetic Momentum of Mice (Methane Phetamine, MK-801) (Method for Measuring a Kinetic Momentum by Discharge of an Infrared Ray)
The effect of improving the positive symptoms and the negative symptoms of schizophrenia by the compound (I) was evaluated by measuring the kinetic momentum that had been […] with administration of the compound in a model causing the symptoms by methane phetamine (which is hereinafter simply referred to as MAP) and MK-801.
Species: Male ICR mouse/number of animals (number of animals per group): 8 to 12 animals per group
The animal was left in a laboratory for 1 hour or longer to be acclimated to the environment, and the animal was taken from the feeding cage, orally administered with a compound to be tested, and then returned to the feeding cage. After 30 minutes, it was put into a cage for measurement, and the kinetic momentum of just the compound to be tested was measured. Further, after 30 minutes, the animal was taken out, and intraperitoneally administered with a drug for increasing kinetic momentum (MAP; 1 mg/kg or MK-801; 0.3 mg/kg, all dissolved in physiological saline), and its kinetic momentum was measured for a certain time (60 minutes) using a device for measuring the kinetic momentum by means of an infrared ray sensor (CompACT AMS, Muromachi Kikai Co., Ltd.). Also, the test was carried out under non-fasting.
The 60 minutes of measurements was classified into three groups: a first half 30 minutes, a second half 30 minutes, and a total 60 minutes. For a normal mouse (a mouse administered with physiological saline) and a mouse administered with the drug for increasing kinetic momentum, a Student's T test was used for evaluation in each interval. For the group administered with the compound to be tested, a solvent (vehicle) group and a Dunnett's T test were carried out and evaluated. For the evaluation, in case where there was a significant (P<0.05) difference for the total 60 minutes, it was considered to be effective.

SMILES	inhibition of MK-801-induced overactivity
NC(N)=NC(=O)c1cc(F)c2c3c(F)cccc3n(C3CCOCC3)c2c1 [Example 146]	significantly inhibited

Same assay, conditions: mouse, oral, dose 0.1 mg/kg; MK-801 0.3 mg/kg i.p.

SMILES	inhibition of MK-801-induced overactivity
Cc1cccc2c1c1ccc(C(=O)N=C(N)N)cc1n2C1CC=C(F)CC1 (stereo not shown) [Example 161]	significantly inhibited
NC(N)=NC(=O)c1ccc2c3ccccc3n(C3CCC(F)(F)CC3)c2c1 [Example 129]	significantly inhibited
NC(N)=NC(=O)c1cc(Cl)c2c3ccccc3n(C3CCOCC3)c2c1 [Example 150]	significantly inhibited

What follows are molecules tested against T1, human 5-HT5A receptor (Homo sapiens, UniProt P47898) (assay: Test of human 5-HT5A receptor binding inhibition ([3H]5-CT, HEK293 cell membrane)). Conditions: [3H]5-CT binding, membrane of HEK293 cell expressing human 5-HT5A receptor.
T1 construct: expressed in transfected cells; membrane preparation
Procedure: An ORF of a human 5-HT5A receptor (Genbank AF498985) was cloned from a human hippocampal cDNA library, and then inserted into a pCR2.1 vector (Invitrogen), and Escherichia coli having the plasmid was mass cultured. Next, the human 5-HT5A receptor full-length cDNA sequence was analyzed, recombined into a pCDNA3.1 vector (Invitrogen) as an expression vector, and mass cultured. A human embryonic kidney-induced cell HEK293 cell (ATCC) was seeded, and the resulting expression plasmid (1 μg) above was added thereto together with LIPOFECTAMINE 2000 (Invitrogen; 2 μl), a gene was introduced into the HEK293 cell, and then Geneticin (G418 sulfate 500 μg/ml; Kanto Chemical Co., Inc.) was used as a drug-resistant marker to screen the expressing cell. Thus prepared gene-expressing recombinant cell was cultured in a D-MEM, 10% FCS, 1% Pc./Sm., 500 μg/ml G418 culture medium for 3 days. This experimental operation was conducted in accordance with a gene operation experiment manual of a known method (Sambrook, J. et al, Molecular Cloning-A Laboratory Manual“, Cold Spring Harabor Laboratory, NY, 1989), etc., an instruction appended in a reagent or the like.
(1) Preparation of a Membrane from an HEK293 Cell Forcibly Expressing a Human 5-HT5A Receptor
An HEK293 cell forcibly expressing a human 5-HT5A receptor was cultured in an F500 plate, and scraped for collection using a scraper. After centrifugation, the precipitates were collected and an incubation buffer (50 mM Tris (HCl) PH 7.4, 10 mM Mg504, 0.5 mM EDTA) was added thereto. After homogenization, it was further centrifuged, an incubation buffer was added to the precipitate, and the mixture was well suspended. These operations were repeatedly conducted, the protein concentration was then measured, and the preparation of a membrane was completed.
(2) Experiment on Human 5-HT5A Receptor Binding Inhibition
The compound to be tested (0.3 to 300 nM) and a 100 μM 5-CT solution in DMSO were added to a 96-well plate at 2 μl/well. The number of the wells to be measured under the same condition in one experiment was set at 2, and an average value thereof was used. It was suspended in an incubation buffer, and a HEK293 cell membrane forcibly expressing a human 5-HT5A receptor that had been prepared at 200 μg/ml was added thereto at 100 μl/well. The mixture was incubated at room temperature for 15 minutes, and a [^3H]5-CT solution (2 nM [^3H]5-CT, an incubation buffer) was then added thereto at 100 μl/well.
Separate from this, 100 μl of the solution was dispersed to a liquid scintillation vial, 2 ml of Aquasol II (registered trademark) was added thereto, followed by stirring, and the radioactivity was then measured with a liquid scintillation counter. The solution was incubated at 37° C. for 60 minutes. The reaction liquid was sucked to a 96-well GF/C filter plate that had been preliminarily treated with 0.2% polyethyleneimine, and washed six times with an ice-cooled 50 mM Tris (pH 7.5) buffer. The GF/C filter plate was dried.
MicroscintTMPS (registered trademark) was added thereto at 40 μl/well. The radioactivity remaining on the GF/C filter plate was measured in a top counter.
For the inhibitory activity for the binding of the [^3H]5-CT by the compound to be tested in each experiment, IC50 value was calculated by taking the radioactivity when only DMSO was added as 0% inhibition, and the radioactivity when 1 μM 5-CT was added as 100% inhibition. Apart from this, a Ki value was calculated from the Kd value of the [^3H]5-CT that had been determined by Scatchard analysis.
Ki=IC50 (1+Concentration of the ligands added/Kd (4.95 nM))

T1 sequence (P47898 whole entry): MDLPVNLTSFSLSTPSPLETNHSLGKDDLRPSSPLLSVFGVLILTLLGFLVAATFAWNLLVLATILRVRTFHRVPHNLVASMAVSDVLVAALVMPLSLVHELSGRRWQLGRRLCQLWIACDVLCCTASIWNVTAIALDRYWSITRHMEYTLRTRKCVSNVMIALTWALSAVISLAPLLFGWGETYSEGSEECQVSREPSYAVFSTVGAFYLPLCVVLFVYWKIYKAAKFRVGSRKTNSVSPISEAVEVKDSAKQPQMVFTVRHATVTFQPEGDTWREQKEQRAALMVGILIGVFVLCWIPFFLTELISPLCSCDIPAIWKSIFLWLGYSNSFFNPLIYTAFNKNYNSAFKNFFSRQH

Ki [nM]	SMILES
≤ 50	Cc1cccc2c1c1ccc(C(=O)N=C(N)N)cc1n2C1CC=C(F)CC1 (stereo not shown) [Example 161]
≤ 50	NC(N)=NC(=O)c1ccc2c3ccccc3n(C3CCC(F)(F)CC3)c2c1 [Example 129]
≤ 50	N#CCN1CCC(n2c3ccccc3c3ccc(C(=O)N=C(N)N)cc32)CC1 [Example 191]
≤ 50	N/C(=N/C(=O)c1ccc2c3ccccc3n(C3CCOCC3)c2c1)NCCO [Example 126]
≤ 50	NC(N)=NC(=O)c1ccc2c3ccccc3n(C(CF)CF)c2c1 [Example 160]
≤ 50	NC(N)=NC(=O)c1ccc2c3c(Cl)cccc3n(C3CCOCC3)c2c1 [Example 115]
≤ 50	NC(N)=NC(=O)c1ccc2c3c(F)ccc(F)c3n(C3CCOCC3)c2c1 [Example 140]
2.2	CN/C(N)=N/C(=O)c1ccc2c3ccccc3n(C3CCOCC3)c2c1 [Example 120]
5.3	NC(N)=NC(=O)c1ccc2c3ccccc3n(-c3ccccn3)c2c1 [Example 102]
≤ 50	N/C(=N\C(=O)c1ccc2c3ccccc3n(C3CCOCC3)c2c1)NCC1CCCCC1 [Example 204]
≤ 50	N/C(=N\C(=O)c1ccc2c3ccccc3n(C3CCOCC3)c2c1)NCc1cccs1 [Example 180]
≤ 50	N/C(=N\C(=O)c1ccc2c3ccccc3n(C3CCOCC3)c2c1)NCc1ccco1 [Example 179]
4.5	CC(C)S(=O)(=O)n1c2ccccc2c2ccc(C(=O)N=C(N)N)cc21 [Example 28]
≤ 50	N/C(=N\C(=O)c1ccc2c3ccccc3n(C3CCOCC3)c2c1)NCC1COCCO1 (stereo not shown) [Example 186]
≤ 50	NC(N)=NC(=O)c1ccc2c3ccccc3n(C3CCOCC3)c2c1 [Example 144]
1.6	N/C(=N\C(=O)c1ccc2c3ccccc3n(C3CCOCC3)c2c1)NCc1ccccc1 [Example 159]
≤ 50	NC(N)=NC(=O)c1ccc2c3ccccc3n(C3CCN(c4ccccc4)CC3)c2c1 [Example 198]
≤ 50	NC(N)=NC(=O)c1cc(F)c2c3c(F)cccc3n(C3CCOCC3)c2c1 [Example 146]
≤ 50	Cc1cccc2c1c1c(F)cc(C(=O)N=C(N)N)cc1n2C1CCOCC1 [Example 145]
≤ 50	CSc1cccc2c1c1ccc(C(=O)N=C(N)N)cc1n2C1CCOCC1 [Example 147]
≤ 50	COCCCN/C(N)=N/C(=O)c1ccc2c3ccccc3n(C3CCOCC3)c2c1 [Example 162]
≤ 50	COc1cccc(OC)c1CNC(N)=NC(=O)c1ccc2c3ccccc3n(C3CCOCC3)c2c1 [Example 212]
≤ 50	N/C(=N\C(=O)c1ccc2c3ccccc3n(C3CCOCC3)c2c1)NCC1CCOCC1 [Example 206]
0.69	CC(C)n1c2ccccc2c2ccc(C(=O)N=C(N)N)cc21 [Example 1, N-(diaminomethylene)-9-isopropyl-9H-carbazole-2-carboxamide]

Ki [nM]	SMILES
0.66	CC(C)C(=O)n1c2ccccc2c2ccc(C(=O)N=C(N)N)cc21 [Example 27]
≤ 50	Cc1cc(Cn2c3ccccc3c3ccc(C(=O)N=C(N)N)cc32)no1 [Example 141]
≤ 50	NC(N)=NC(=O)c1cc(Cl)c2c3ccccc3n(C3CCOCC3)c2c1 [Example 150]
≤ 50	COCCN/C(N)=N/C(=O)c1ccc2c3ccccc3n(Cc3cccs3)c2c1 [Example 210]
≤ 50	COc1ccc(CN/C(N)=N/C(=O)c2ccc3c4ccccc4n(C4CCOCC4)c3c2)cc1 [Example 193]
≤ 50	N/C(=N\C(=O)c1ccc2c3ccccc3n(C3CCOCC3)c2c1)Nc1ccccc1 [Example 181]
≤ 50	N/C(=N\C(=O)c1ccc2c3ccccc3n(C3CCOCC3)c2c1)NCCc1ccccc1 [Example 196]
≤ 50	N/C(=N\C(=O)c1ccc2c3ccccc3n(C3CCOCC3)c2c1)NC1CCOCC1 [Example 182]
≤ 50	NC(N)=NC(=O)c1ccc2c3ccc(F)cc3n(C3CCOCC3)c2c1 [Example 114]
≤ 50	N/C(=N\C(=O)c1ccc2c3ccccc3n(C3CCOCC3)c2c1)NC1CC1 [Example 164]
≤ 50	CC(C)n1c2cc(C(=O)N=C(N)N)ccc2c2c(O)cccc21 [Example 152]
≤ 50	Cc1ccsc1Cn1c2ccccc2c2ccc(C(=O)N=C(N)N)cc21 [Example 177]
≤ 50	N/C(=N\C(=O)c1ccc2c3ccccc3n(C3CCOCC3)c2c1)NC[C@@H]1CCCO1 [Example 187]
2.8	NC(N)=NC(=O)c1ccc2c(c1)[nH]c1ccccc12 [Example 2, N-(diaminomethylene)-9H-carbazole-2-carboxamide]
≤ 50	NC(N)=NC(=O)c1ccc2c3ccccc3n(Cc3ccc(F)s3)c2c1 [Example 116]
≤ 50	NC(N)=NC(=O)C1CCc2c(n(-c3ccccc3)c3ccccc23)C1 (stereo not shown) [Example 220]
≤ 50	NC(N)=NC(=O)c1ccc2c3ccccc3n([C@@H]3CCNC3)c2c1 [Example 175]
≤ 50	CC(C)N/C(N)=N\C(=O)c1ccc2c3ccccc3n(C3CCOCC3)c2c1 [Example 149]
≤ 50	N/C(=N\C(=O)c1ccc2c3ccccc3n(C3CCOCC3)c2c1)NC[C@H]1CCCO1 [Example 188]
≤ 50	NC(N)=NC(=O)c1ccc2c3ccccc3n([C@H]3CC[C@@H](F)CC3)c2c1 [Example 143]
≤ 50	CO[C@H]1CC[C@@H](n2c3ccccc3c3ccc(C(=O)N=C(N)N)cc32)CC1 [Example 148]
≤ 50	N/C(=N\C(=O)c1ccc2c3ccccc3n(C3CCOCC3)c2c1)NCC1CCCC1 [Example 205]
≤ 50	COc1ccccc1CN/C(N)=N/C(=O)c1ccc2c3ccccc3n(C3CCOCC3)c2c1 [Example 195]
≤ 50	NC(N)=NC(=O)c1cc(F)c2c3ccccc3n(C3CCOCC3)c2c1 [Example 11, N-(diaminomethylene)-4-fluoro-9-(tetrahydro-2H-pyran-4-yl)-9H-carbazole-2-carboxamide hydrochloride]
